Laboratory results published in ChEMBL document CHEMBL3885881, “DrugMatrix”.

Species on record: Rattus norvegicus
Assay: DrugMatrix - Regimen: Daily Repeat
Type: toxicity, organism-based, Sprague-Dawley
Parameters: regimen Daily Repeat, gender Male, age 6-8 weeks
Settings: in vivo, iv, vehicle 100 % SALINE; for URIC ACID / ALANINE AMINOTRANSFERASE / ALBUMIN / ALKALINE PHOSPHATASE / ASPARTATE AMINOTRANSFERASE / BLOOD UREA NITROGEN / CARBON DIOXIDE / CHLORIDE / CHOLESTEROL / CREATINE PHOSPHOKINASE / CREATININE / GLUCOSE / LACTATE DEHYDROGENASE / LIPASE / PHOSPHORUS / POTASSIUM / SODIUM / TOTAL BILIRUBIN / TOTAL PROTEIN: tissue Plasma; for ABSOLUTE BASOPHIL / ABSOLUTE EOSINOPHIL / ABSOLUTE LYMPHOCYTE / ABSOLUTE MONOCYTE / ABSOLUTE SEGMENTED NEUTROPHIL / BASOPHIL / EOSINOPHIL / ERYTHROCYTE COUNT / HEMATOCRIT / HEMOGLOBIN / LEUKOCYTE COUNT / LYMPHOCYTE / MEAN CORPUSCULAR HEMOGLOBIN / MEAN CORPUSCULAR HEMOGLOBIN CONCENTRATION / MEAN CORPUSCULAR VOLUME / MONOCYTE / NEUTROPHIL / NUCLEATED RED BLOOD CELLS / PLATELET COUNT: tissue Blood
[1] = 2 mg/kg, 120 h, dose level Low, time 5 day
[2] = 44 mg/kg, 72 h, dose level High, time 3 day
[3] = 44 mg/kg, 120 h, dose level High, time 5 day

Question: `Cc1ccc(N(CC2=NCCN2)c2cccc(O)c2)cc1` [PHENTOLAMINE] was tested. Which “URIC ACID” value (2 mg/kg, 72 h, dose level Low, time 3 day) did it give?
Answer: 1.4 mg/dL

Question: And the “ABSOLUTE BASOPHIL” value [1]?
Answer: 0 CELLS/uL

Question: What about the “ABSOLUTE EOSINOPHIL” value [1] of the same molecule?
Answer: 0 CELLS/uL

Question: What about the “ABSOLUTE LYMPHOCYTE” value [1] of the same molecule?
Answer: 13096 CELLS/uL

Question: What about the “ABSOLUTE MONOCYTE” value [1] of the same molecule?
Answer: 288 CELLS/uL

Question: What about the “ABSOLUTE SEGMENTED NEUTROPHIL” value [1] of the same molecule?
Answer: 1016 CELLS/uL

Question: What about the BASOPHIL [1] of the same molecule?
Answer: 0%

Question: What about the EOSINOPHIL [1] of the same molecule?
Answer: 0%

Question: And the “ERYTHROCYTE COUNT” value [1]?
Answer: 6.03 x10E6/uL

Question: What about the HEMATOCRIT [1] of the same molecule?
Answer: 38.17%

Question: And the HEMOGLOBIN [1]?
Answer: 14.2 G/DL

Question: And the “LEUKOCYTE COUNT” value [1]?
Answer: 14.4 x10E3/uL

Question: And the LYMPHOCYTE [1]?
Answer: 91%

Question: And the “MEAN CORPUSCULAR HEMOGLOBIN” value [1]?
Answer: 23.53 pg

Question: And the “MEAN CORPUSCULAR HEMOGLOBIN CONCENTRATION” value [1]?
Answer: 37.2 G/DL

Question: And the “MEAN CORPUSCULAR VOLUME” value [1]?
Answer: 63.3 fL

Question: And the MONOCYTE [1]?
Answer: 2%

Question: What about the NEUTROPHIL [1] of the same molecule?
Answer: 7%

Question: What about the “NUCLEATED RED BLOOD CELLS” value [1] of the same molecule?
Answer: 0.67 /100WBC

Question: And the “PLATELET COUNT” value [1]?
Answer: 1406 x10E3/uL

Question: What about the “ALANINE AMINOTRANSFERASE” value [1] of the same molecule?
Answer: 51.67 u/L

Question: And the ALBUMIN [1]?
Answer: 4.47 G/DL

Question: What about the “ALKALINE PHOSPHATASE” value [1] of the same molecule?
Answer: 440 u/L

Question: What about the “ASPARTATE AMINOTRANSFERASE” value [1] of the same molecule?
Answer: 80 u/L

Question: What about the “BLOOD UREA NITROGEN” value [1] of the same molecule?
Answer: 16.67 mg/dL

Question: And the “CARBON DIOXIDE” value [1]?
Answer: 20.33 mmol/L

Question: And the CHLORIDE [1]?
Answer: 102.67 MEQ/L

Question: What about the CHOLESTEROL [1] of the same molecule?
Answer: 64.33 mg/dL

Question: What about the “CREATINE PHOSPHOKINASE” value [1] of the same molecule?
Answer: 255.33 u/L

Question: And the CREATININE [1]?
Answer: 0.17 mg/dL

Question: What about the GLUCOSE [1] of the same molecule?
Answer: 170.33 mg/dL

Question: And the “LACTATE DEHYDROGENASE” value [1]?
Answer: 112.33 u/L

Question: And the LIPASE [1]?
Answer: 10 u/L

Question: What about the PHOSPHORUS [1] of the same molecule?
Answer: 12.37 mg/dL

Question: And the POTASSIUM [1]?
Answer: 6.89 MEQ/L

Question: What about the SODIUM [1] of the same molecule?
Answer: 145.97 MEQ/L

Question: What about the “TOTAL BILIRUBIN” value [1] of the same molecule?
Answer: 0.23 mg/dL

Question: And the “URIC ACID” value [1]?
Answer: 1.8 mg/dL

Question: And the “ABSOLUTE BASOPHIL” value [2]?
Answer: 0 CELLS/uL

Question: And the “ABSOLUTE EOSINOPHIL” value [2]?
Answer: 0 CELLS/uL

Question: And the “ABSOLUTE LYMPHOCYTE” value [2]?
Answer: 13788 CELLS/uL

Question: What about the “ABSOLUTE MONOCYTE” value [2] of the same molecule?
Answer: 136.33 CELLS/uL

Question: And the “ABSOLUTE SEGMENTED NEUTROPHIL” value [2]?
Answer: 1109 CELLS/uL

Question: And the BASOPHIL [2]?
Answer: 0%

Question: What about the EOSINOPHIL [2] of the same molecule?
Answer: 0%

Question: And the “ERYTHROCYTE COUNT” value [2]?
Answer: 5.51 x10E6/uL

Question: And the HEMATOCRIT [2]?
Answer: 35.77%

Question: And the HEMOGLOBIN [2]?
Answer: 13.13 G/DL

Question: What about the “LEUKOCYTE COUNT” value [2] of the same molecule?
Answer: 15.03 x10E3/uL

Question: What about the LYMPHOCYTE [2] of the same molecule?
Answer: 91.33%

Question: And the “MEAN CORPUSCULAR HEMOGLOBIN” value [2]?
Answer: 23.9 pg

Question: What about the “MEAN CORPUSCULAR HEMOGLOBIN CONCENTRATION” value [2] of the same molecule?
Answer: 36.73 G/DL

Question: What about the “MEAN CORPUSCULAR VOLUME” value [2] of the same molecule?
Answer: 65 fL

Question: And the MONOCYTE [2]?
Answer: 1%

Question: What about the NEUTROPHIL [2] of the same molecule?
Answer: 7.67%

Question: What about the “NUCLEATED RED BLOOD CELLS” value [2] of the same molecule?
Answer: 0.67 /100WBC

Question: And the “PLATELET COUNT” value [2]?
Answer: 1392 x10E3/uL

Question: What about the “ALANINE AMINOTRANSFERASE” value [2] of the same molecule?
Answer: 54.67 u/L

Question: And the ALBUMIN [2]?
Answer: 4.3 G/DL

Question: And the “ALKALINE PHOSPHATASE” value [2]?
Answer: 373 u/L

Question: What about the “ASPARTATE AMINOTRANSFERASE” value [2] of the same molecule?
Answer: 66.67 u/L

Question: And the “BLOOD UREA NITROGEN” value [2]?
Answer: 17.33 mg/dL

Question: And the “CARBON DIOXIDE” value [2]?
Answer: 20.33 mmol/L

Question: And the CHLORIDE [2]?
Answer: 100.67 MEQ/L

Question: What about the CHOLESTEROL [2] of the same molecule?
Answer: 81.33 mg/dL

Question: What about the “CREATINE PHOSPHOKINASE” value [2] of the same molecule?
Answer: 188.33 u/L

Question: What about the CREATININE [2] of the same molecule?
Answer: 0.22 mg/dL

Question: And the GLUCOSE [2]?
Answer: 163.67 mg/dL

Question: And the “LACTATE DEHYDROGENASE” value [2]?
Answer: 78 u/L

Question: And the LIPASE [2]?
Answer: 10.67 u/L

Question: What about the PHOSPHORUS [2] of the same molecule?
Answer: 10.77 mg/dL

Question: And the POTASSIUM [2]?
Answer: 6.6 MEQ/L

Question: What about the SODIUM [2] of the same molecule?
Answer: 143.67 MEQ/L

Question: And the “TOTAL BILIRUBIN” value [2]?
Answer: 0.23 mg/dL

Question: What about the “TOTAL PROTEIN” value [2] of the same molecule?
Answer: 6.03 G/DL

Question: What about the “URIC ACID” value [2] of the same molecule?
Answer: 1.53 mg/dL

Question: And the “ABSOLUTE BASOPHIL” value [3]?
Answer: 0 CELLS/uL

Question: And the “ABSOLUTE EOSINOPHIL” value [3]?
Answer: 0 CELLS/uL

Question: And the “ABSOLUTE LYMPHOCYTE” value [3]?
Answer: 13982.67 CELLS/uL

Question: What about the “ABSOLUTE MONOCYTE” value [3] of the same molecule?
Answer: 349.33 CELLS/uL

Question: What about the “ABSOLUTE SEGMENTED NEUTROPHIL” value [3] of the same molecule?
Answer: 3068 CELLS/uL

Question: And the BASOPHIL [3]?
Answer: 0%

Question: What about the EOSINOPHIL [3] of the same molecule?
Answer: 0%

Question: And the “ERYTHROCYTE COUNT” value [3]?
Answer: 5.76 x10E6/uL

Question: What about the HEMATOCRIT [3] of the same molecule?
Answer: 36.83%

Question: And the HEMOGLOBIN [3]?
Answer: 13.87 G/DL

Question: What about the “LEUKOCYTE COUNT” value [3] of the same molecule?
Answer: 17.4 x10E3/uL

Question: And the LYMPHOCYTE [3]?
Answer: 81.33%

Question: And the “MEAN CORPUSCULAR HEMOGLOBIN” value [3]?
Answer: 24.1 pg

Question: What about the “MEAN CORPUSCULAR HEMOGLOBIN CONCENTRATION” value [3] of the same molecule?
Answer: 37.67 G/DL

Question: What about the “MEAN CORPUSCULAR VOLUME” value [3] of the same molecule?
Answer: 64.07 fL

Question: What about the MONOCYTE [3] of the same molecule?
Answer: 2%

Question: And the NEUTROPHIL [3]?
Answer: 16.67%

Question: What about the “NUCLEATED RED BLOOD CELLS” value [3] of the same molecule?
Answer: 0 /100WBC

Question: What about the “PLATELET COUNT” value [3] of the same molecule?
Answer: 1344.67 x10E3/uL

Question: What about the “ALANINE AMINOTRANSFERASE” value [3] of the same molecule?
Answer: 54.67 u/L

Question: What about the ALBUMIN [3] of the same molecule?
Answer: 4.33 G/DL

Question: What about the “ALKALINE PHOSPHATASE” value [3] of the same molecule?
Answer: 353 u/L

Question: And the “ASPARTATE AMINOTRANSFERASE” value [3]?
Answer: 75.67 u/L

Question: And the “BLOOD UREA NITROGEN” value [3]?
Answer: 16.33 mg/dL

Question: What about the “CARBON DIOXIDE” value [3] of the same molecule?
Answer: 29.33 mmol/L

Question: What about the CHLORIDE [3] of the same molecule?
Answer: 103.33 MEQ/L

Question: What about the CHOLESTEROL [3] of the same molecule?
Answer: 81 mg/dL

Question: What about the “CREATINE PHOSPHOKINASE” value [3] of the same molecule?
Answer: 410.67 u/L

Question: What about the CREATININE [3] of the same molecule?
Answer: 0.19 mg/dL

Question: And the GLUCOSE [3]?
Answer: 200.33 mg/dL

Question: And the “LACTATE DEHYDROGENASE” value [3]?
Answer: 220.67 u/L

Question: What about the LIPASE [3] of the same molecule?
Answer: 11 u/L

Question: And the PHOSPHORUS [3]?
Answer: 11.43 mg/dL

Question: And the POTASSIUM [3]?
Answer: 6.26 MEQ/L

Question: What about the SODIUM [3] of the same molecule?
Answer: 144.07 MEQ/L

Question: What about the “TOTAL BILIRUBIN” value [3] of the same molecule?
Answer: 0.17 mg/dL

Question: What about the “TOTAL PROTEIN” value [3] of the same molecule?
Answer: 6.43 G/DL

Question: And the “URIC ACID” value [3]?
Answer: 2.13 mg/dL
